Laboratory results: patent US5399697A, “N,N',N'-trisubstituted-5-bisaminomethylene-1,3-dioxane-4,6-dione inhibitors of acyl-CoA:cholesterol-acyl transferase” (American Home Products Corporation, priority 1993, dated 1995)

Experiments:
[1] = tested on: low density lipoprotein oxidation; experiment: Antioxidant properties, low density lipoprotein oxidation studies (Parthasarathy et al.); type: biochemical; details: result in words
Description: (§1) The use of antioxidants in the treatment of atherosclerosis is also known to be of therapeutic value.

[2] = tested on: lipoperoxide; experiment: Antioxidant properties, lipoperoxide study of Yagi; type: biochemical; details: result in words
Description: as §1

[3] = tested on: acyl-coenzyme A: cholesterol acyltransferase; experiment: Inhibition of ACAT / intracellular cholesterol esterification in vitro (procedure of Ross et al.); type: cell-based; details: for % Inhibition: 25 μM; for IC50: read-out: IC50
[4] = tested on: cholesterol absorption; experiment: 14C-cholesterol absorption in normal rats (oral gavage); type: in vivo; details: Rattus norvegicus; for ED50: normal fed rats
Description: Representative compounds were further tested in vivo to establish the percent inhibition of cholesterol absorption. In this study, normal rats were dosed (oral gavage) with ^14 C-cholesterol plus the test compound. Blood samples taken at six hours and/or intermittently up to twenty-four hours were analyzed and the percent inhibition of cholesterol absorption was calculated.

[5] = tested on: plasma cholesterol; experiment: Plasma cholesterol in cholesterol-cholic acid fed rats; type: in vivo; details: Rattus norvegicus, oral gavage
Description: In addition, representative compounds were studied in vivo in cholesterol-cholic acid fed rats to determine the percent decrease of cholesterol in their plasma. This study involves rats which are, prior to testing, trained for one week to eat over a four hour time period each day. Upon initiation of the experiment, the rats diet is supplemented with 1.0 percent cholesterol and 0.25 percent cholic acid. The rats are dosed with the test compound by oral gavage just prior to adjust following the four hour feeding period. This is repeated for four days. On the fifth day, the rats are sacrificed and the total plasma cholesterol content is determined. The percent decrease in elevated plasma cholesterol levels is calculated in comparison with […].

[6] = normal rats, read-out: % Inhibition of Absorption
[7] = 96 h, four days, read-out: % Decrease in Plasma Cholesterol

SMILES	antioxidant properties in low density lipoprotein oxidation studies [1]	antioxidant properties in the lipoperoxide study [2]	% Inhibition [3] [%]	IC50 [3] [nM]	change in vivo at 100 mg/kg [5, 7] [%]	also measured
CCCCCC(C)N(Cc1ccc(CC(C)(C)C)cc1)C(Nc1cc(C(C)(C)C)c(O)c(C(C)(C)C)c1)=C1C(=O)OC(C)(C)OC1=O (stereo not shown) [Compound 75]	demonstrated antioxidant properties	demonstrated antioxidant properties	–	–	–	–
CCCCCC(C)N(Cc1ccc(CC(C)(C)C)cc1)C(Nc1c(C)cc(N(C)C)cc1C)=C1C(=O)OC(C)(C)OC1=O (stereo not shown) [Compound 33, 5-[[[2,6-Dimethyl-4-(dimethylamino)phenyl]amino][[[4-(2,2-dimethylpropyl)phenyl]methyl](1-methylhexyl)amino]methylene]-2,2-dimethyl-1,3-dioxane-4,6-dione]	–	–	98	380	–	change in vivo at 50 mg/kg ([4]; normal rats, 50 mg/kg, read-out: % Inhibition of Absorption): -86%; change in vivo at 20 mg/kg ([5]; 96 h, four days, 20 mg/kg, read-out: % Decrease in Plasma Cholesterol): -30%
CCCCCCCN(Cc1ccc(CC(C)(C)C)cc1)C(Nc1ccc(OC)cc1OC)=C1C(=O)OC(C)(C)OC1=O [Compound 48, 5-[[(2,4-Dimethoxyphenyl)amino][[[4-(2,2-dimethylpropyl)phenyl]methyl]heptylamino]-methylene]-2,2-dimethyl-1,3-dioxane-4,6-dione]	–	–	94	2900	-60	ED50 [4]: 11 mg/kg; change in vivo at 200 mg/kg [4, 6]: -84%; ED50 ([5]; fifty percent reduction of plasma cholesterol): 25 mg/kg
CC(C)CCCC(C)N(Cc1ccc(CC(C)C)cc1)C(Nc1ccc(N(C)C)cc1)=C1C(=O)OC(C)(C)OC1=O (stereo not shown) [Compound 42]	–	–	98	270	–	ED50 [4]: 5 mg/kg; change in vivo at 40 mg/kg [5, 7]: -63%
CCCCCCCN(Cc1ccc(CC(C)(C)C)cc1)C(Nc1cc(C(C)(C)C)c(O)c(C(C)(C)C)c1)=C1C(=O)OC(C)(C)OC1=O [Compound 76, 5-[[[3,5-Bis(1,1-dimethylethyl)-4,1-hydrophenyl]amino][[[4-(2,2-dimethylpropyl)phenyl]methyl]heptylamino]methylene]-2,2-dimethyl-1,3-dioxane-4,6-dione]	demonstrated antioxidant properties	demonstrated antioxidant properties	96	60	–	–
CCCCCCN(Cc1ccc(CC(C)C)cc1)C(Nc1cc(C(C)(C)C)c(O)c(C(C)(C)C)c1)=C1C(=O)OC(C)(C)OC1=O [Compound 77]	demonstrated antioxidant properties	demonstrated antioxidant properties	95	–	–	–
CCCCCC(C)N(Cc1ccc(C(C)(C)C)cc1)C(Nc1ccc(OCCCC)cc1)=C1C(=O)OC(C)(C)OC1=O (stereo not shown) [Compound 27, 5-[[(4-Butoxyphenyl)amino][[[4-(1,1-dimethylethyl)phenyl]methyl](1-methylhexyl)amino]-methylene]-2,2-dimethyl-1,3-dioxane-4,6-dione]	–	–	96	230	–	change in vivo at 20 mg/kg ([4]; normal rats, 20 mg/kg, read-out: % Inhibition of Absorption): -58%; change in vivo at 40 mg/kg [5, 7]: -31%
CCCCCC(C)N(Cc1ccc(C(C)(C)C)cc1)C(Nc1ccc(N(C)C)cc1)=C1C(=O)OC(C)(C)OC1=O (stereo not shown) [Compound 21, 5-[[[4-(Dimethylamino)phenyl]amino][[[4-(1,1-dimethylethyl)phenyl]methyl](1-methylhexyl)-amino]methylene]-2,2-dimethyl-1,3-dioxane-4,6-dione]	–	–	98	250	-78	change in vivo at 75 mg/kg ([4]; normal rats, 75 mg/kg, read-out: % Inhibition of Absorption): -83%
CCCCCCN(Cc1ccc(CC(C)(C)C)cc1)C(Nc1cc(C(C)(C)C)c(O)c(C(C)(C)C)c1)=C1C(=O)OC(C)(C)OC1=O [Compound 79, 5-[[[3,5-Bis(1,1-dimethylethyl)-4-hydroxyphenyl]amino][[[4-(2,2-dimethylpropyl)phenyl]methyl]hexylamino]methylene]-2,2-dimethyl-1,3-dioxane-4,6-dione]	demonstrated antioxidant properties	demonstrated antioxidant properties	–	–	–	–
CCCCCCCN(Cc1ccc(C(C)(C)C)cc1)C(Nc1ccc(N(C)C)cc1)=C1C(=O)OC(C)(C)OC1=O [Compound 5, 5-[[[4-(Dimethylamino)phenyl]amino][[[4-(1,1-dimethylethyl)phenyl]methyl]heptylamino]methylene]-2,2-dimethyl-1,3-dioxane-4,6-dione]	–	–	99	1100	-35	change in vivo at 200 mg/kg [4, 6]: -91%
